Assay results taken from US7691858B2, “Kinase inhibitors and methods of use thereof” (TargeGen, Inc., priority 2006, dated 2010).

Assays:
PI3Kγ (p120γ) = molecular target: T1, PI3Kγ (p120γ) (Homo sapiens, UniProt P48736); test: PI3K luminescence kinase assay (Kinase-Glo), IC50; type: biochemical; details: Table 1, mean of triplicate values
T1 construct: purchased Upstate Cell Signaling Solutions / Upstate USA
Protocol: The IC50 value for compounds were determined using a luminescence-based kinase assay with recombinant phosphatidylinositol 3-kinase-p120γ (PI3K) obtained from Upstate Cell Signaling Solutions. […] The reaction was initiated by the addition of 10 μL of ATP to a final assay concentration of 3 μM. After the reaction was to proceed for 90 min, 50 μL of Kinase-Glo reagent (Promega) was added to terminate the reaction. This solution was then allowed to proceed for an additional 10 min to maximize the luminescence reaction. […] Two control reactions were also ran: one containing no compound and the second containing neither compound nor the phosphatidylinositol 4,5-bisphosphate substrate. Data from four wells were then averaged and used to determine IC50 values for the test compounds. IC50 values were derived from experimental data using the non-linear curve fitting capabilities of Prism (Version 4; GraphPad Software).

four isoforms of PI3K = test: PI3K isoform profiles; type: biochemical
Protocol: Identification of PI3K isoform-selective inhibitors.
Kinase assays: For PI3K assays, 40 μL reaction buffer (20 mM Tris, 4 mM MgCl2, 10 mM NaCl, pH 7.4) containing 50 μM D-myo-phosphatidylinositol 4,5-bisphosphate substrate (Echelon Biosciences, Salt Lake City, Utah) and the desired PI3K isoform (Upstate USA, Charlottesville, Va.) were aliquoted to 96 well plates; kinase concentrations were 250-500 ng/well, such that linear kinetics were achieved over 90 min. The compound to be tested was then added as 2.5 μL of a DMSO stock to final concentration range of 100 μM. to 1 nM. Reactions were initiated by addition of 10 μL of ATP to a final concentration of 3 μM, and after 90 min 50 μL of Kinase-Glo reagent (Promega, Madison, Wis.) added to quantify residual ATP levels; luminosity was measured using an Ultra 384 instrument (Tecan, Durham, N.C.). Control reactions omitting either test compound or substrate were also performed. IC50 values were derived from experimental data by non-linear curve fitting (Prism Version 4; GraphPad Software, San Diego, Calif.).

T1 sequence (P48736 whole entry): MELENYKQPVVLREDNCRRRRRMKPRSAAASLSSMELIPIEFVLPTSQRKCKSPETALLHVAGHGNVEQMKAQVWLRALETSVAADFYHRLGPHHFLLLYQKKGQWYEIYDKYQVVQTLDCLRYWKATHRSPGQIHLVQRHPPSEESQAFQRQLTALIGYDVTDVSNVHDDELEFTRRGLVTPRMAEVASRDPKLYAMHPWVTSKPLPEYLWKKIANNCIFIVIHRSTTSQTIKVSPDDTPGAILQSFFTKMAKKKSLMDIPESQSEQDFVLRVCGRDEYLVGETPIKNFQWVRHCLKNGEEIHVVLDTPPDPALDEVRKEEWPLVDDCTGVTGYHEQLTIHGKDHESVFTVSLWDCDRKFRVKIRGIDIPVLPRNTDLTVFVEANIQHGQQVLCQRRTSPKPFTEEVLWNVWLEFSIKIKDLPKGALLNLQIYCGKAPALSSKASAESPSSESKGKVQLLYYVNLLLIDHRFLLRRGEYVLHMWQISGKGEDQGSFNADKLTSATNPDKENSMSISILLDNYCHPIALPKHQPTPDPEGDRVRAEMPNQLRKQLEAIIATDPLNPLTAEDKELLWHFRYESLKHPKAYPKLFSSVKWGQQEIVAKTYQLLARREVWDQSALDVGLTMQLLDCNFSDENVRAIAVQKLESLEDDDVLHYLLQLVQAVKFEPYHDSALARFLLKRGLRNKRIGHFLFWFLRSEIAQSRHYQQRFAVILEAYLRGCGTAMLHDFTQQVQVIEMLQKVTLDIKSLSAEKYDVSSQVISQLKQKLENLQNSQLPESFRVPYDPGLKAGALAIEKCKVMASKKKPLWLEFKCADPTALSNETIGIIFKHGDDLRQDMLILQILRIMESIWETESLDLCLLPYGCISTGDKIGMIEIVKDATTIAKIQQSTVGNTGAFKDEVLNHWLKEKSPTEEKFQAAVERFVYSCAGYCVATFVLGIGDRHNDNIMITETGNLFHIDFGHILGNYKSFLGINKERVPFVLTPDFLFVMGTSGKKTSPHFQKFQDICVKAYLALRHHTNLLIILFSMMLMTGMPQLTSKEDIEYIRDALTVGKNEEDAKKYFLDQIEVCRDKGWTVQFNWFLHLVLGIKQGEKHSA

For Nc1nc(N)c2nc(-c3cccc4[nH]ccc34)cnc2n1 [Compound III, 6-(1H-Indol-4-yl)pteridine-2,4-diamine], which IC50 (PI3Kγ (p120γ)) is on record?
The IC50 was 85 nM.

What about the PI3K isoform selectivity (four isoforms of PI3K) of the same compound?
Its PI3K isoform selectivity is “less selective”.
